These results are taken from patent US20140017339A1, “MATERIALS AND METHODS FOR TREATING RADIATION POISONING” (priority 2010, published 2014).

The test system of one test is HSC. Particulars: WO 2010/054271, cited from earlier work.
Test [1] deals with marrow HPC of irradiated mice. The experiment in a line: Colony assays: total CFC (CFU-GM, BFU-E, CFU-GEMM) per femur after irradiation. It counts as in vivo, C57B1/6 mice. As for the experimental part: After 30 days, analysis of total CFC(CFU-GM, BFU-E and CFU-GEMM) was performed in methylcellulose culture. Referring now to FIG. 2B, data are Mean±SEM from N=5 mice per group, each assayed individually.
Irradiated mice were identified by ear punches and treated with either a single subcutaneous dose of dmPGE2 (40 μg/mouse) or vehicle control at 6 hours post-irradiation (N=20 mice per group, evenly split male/female); 6 mg/kg meloxicam dosed once daily on days 2 through 5 post-irradiation or vehicle control (N=20 or 40 mice per group, respectively, evenly split male/female); or a single subcutaneous dose of CoCl2 (60 mg/kg) at 6 hours post-irradiation (N=20 mice per group, evenly split male/female). One mouse per treatment group was housed in each individual cage.
After 35 days, remaining irradiated mice were sacrificed, bone marrow acquired from femurs, and total CFC including CFU-GM, BFU-E and CFU-GEMM were enumerated in 1% methylcellulose/IMDM containing 30% HI-FBS, 1 U/ml rhEPO, 10 ng/ml rhGM-CSF and 50 ng/ml rmSCF as described (Broxmeyer et al., 2007; Fukuda et al., 2007). All cultures were established in triplicate from individual animals, incubated at 37° C., 5% CO2, 5% O2 in air for 7 days and colonies quantified by microscopy.
Referring now to FIG. 2B, after 30 days, analysis of total CFC(CFU-GM, BFU-E and CFU-GEMM) was performed in methylcellulose culture. Data are Mean±SEM from N=5 mice per group, each assayed individually.

For the next test, the system named is bone marrow HPC. Nature of the test: NSAID effect on bone marrow progenitor cell expansion in non-irradiated mice (CFU-GM). It counts as in vivo. The conditions noted are these: NSAID twice daily for 4 days, assayed on day 5. As for the experimental part:
Mice were administered dual (Indomethacin, meloxicam), COX2 selective (Valdecoxib) or COX1 selective (SC560) inhibitors twice daily for 4 days. Referring now to FIG. 1, on day 5, mice were sacrificed, bone marrow from one femur isolated, total nucleated cells counted on a Hemavet 950FS and CFU-GM determined. Data are Mean±SEM for N=5 mice per group, each assayed individually.

Test [2] concerns irradiated mice (796 cGys, LD50). The experiment in a line: 30-day survival after irradiation, murine HS-ARS model. The test is classed as in vivo, C57B1/6 mice. The conditions noted are these: 30 days. As for the experimental part: Male and female C57B1/6 mice were purchased from Jackson Laboratories at 10-12 weeks of age. Mice were housed in microisolator cages (5 mice per cage) with sterilized direct contact bedding (Alpha Dri). Animal holding rooms were maintained at 21±3° C. with 30 to 80% relative humidity, with at least 10 air changes per hour of 100% fresh air, and a 12-hour light/dark cycle. Mice were fed ad libitum with commercial rodent chow (Harlan 2018SXC) in cage hoppers and acidified (pH 2.0-3.0) water in sipper tube bottles. The Institutional Animal Care and Use Committee of IUSM approved all protocols.
Mice were placed in single chambers of a plexiglass irradiation pie (Braintree), with 15 mice per pie, alternating groups of males and females within the same pie. The mice in each group of mice, irradiated together in the same pie, were divided equally among all treatment groups to ensure that each group received the same irradiation exposure conditions. […]
Cohorts of 20-40 mice were irradiated with an LD50 dose from a ^137Cs source. […] Animals were monitored for morbidity and mortality twice/daily for 30 days and euthanized when moribund. Referring now to FIG. 2A, survival curves were analyzed with a log-rank test. […]
Moribund mice were scored for signs of early euthanasia based on three parameters: the severity of hunched posture, squinted/closed eyes, and decreased activity. Each criterion was scored on a scale of 1 to 3, with 3 being the most severe. Moribund mice with a score of 8 or 9 were euthanized and the date of death was recorded.
Irradiated mice with therapeutic exogenously provided amounts of PGE2 mitigated the damage to hematopoietic cells observed post-irradiation with dmPGE2 treatment, using a murine HS-ARS model developed by Dr. Orschell at IUSM. […] Animals were monitored for morbidity and mortality twice/daily for 30 days and euthanized when moribund. Survival curves were analyzed with a log-rank test.

Consider `CCCCC[C@H](O)/C=C/[C@H]1[C@H](O)CC(=O)[C@@H]1C/C=C\CCCC(=O)O` [PGE2, prostaglandin E2], for which the “homing/engraftment in bone marrow transplants” value in the test with HSC is recorded as “increased homing/engraftment”. In addition, the “apoptosis of HSC” value with HSC (through up-regulation of Survivin) was “decreased apoptosis”.
As to `Cc1cnc(NC(=O)C2=C(O)c3ccccc3S(=O)(=O)N2C)s1` [meloxicam, 4-hydroxy-2-methyl-N-(5-methyl-2-thiazolyl)-2H-1,2-benzothiazine-3-carboxamide-1,1-dioxide], in test [1] (6 mg/kg once daily on days 2 through 5 post-irradiation, femurs 35 days post-irradiation), the “bone marrow CFC content versus control” value was “significantly increased bone marrow CFC content compared to control”. In the test with bone marrow HPC, the “HPC expansion in bone marrow” value is recorded as “increase HPCs within the bone marrow”. The same molecule had a percent survival in test [2] (6 mg/kg once daily on days 2 through 5 post-irradiation, control 50% survival, P=0.034) of 80%.
Consider `CCCCC(C)(C)[C@H](O)/C=C/[C@H]1[C@H](O)CC(=O)[C@@H]1C/C=C\CCCC(=O)O` [dmPGE2, 16,16 dimethyl prostaglandin E2], for which, in test [1] (single subcutaneous dose 40 μg/mouse at 6 hours post-irradiation, 796 cGys, day 35), the “marrow HPC (total CFC per femur) versus control irradiated mice” value is recorded as “significantly higher than control irradiated mice”. In addition, the percent survival in test [2] (single subcutaneous dose 40 μg/mouse at 6 hours post-irradiation, 796 cGys, control 50% survival, P=0.0011) was determined as 95%.
Regarding `[Cl][Co][Cl]` [CoCl2, cobalt chloride], the “CFC in bone marrow” value in test [1] (single subcutaneous dose 60 mg/kg at 6 hours post-irradiation, day 35) is on record as “significantly increased CFC in bone marrow”. Further, the percent survival in test [2] (single subcutaneous dose 60 mg/kg at 6 hours post-irradiation, P=0.0011) is recorded as 95%.
